{"source": "patent US5284850A", "about": "“Terpene amino alcohols and medicinal uses thereof” (Kuraray Co., Ltd., priority 1985, dated 1994)", "key": {"Acute toxicity (LD50)": {"experiment": "Acute toxicity (LD50)", "conditions": "mouse, in vivo; male ddK mice, 20-23 g, 10 animals per group, oral", "source_text": "Toxicity studies also made it clear that the terpene amino alcohols according to the present invention are of low toxicity."}, "[1]": {"system": "sensitized bronchial muscle", "experiment": "Antiallergic action: inhibition of egg albumin-induced contraction of sensitized guinea pig bronchial muscle", "format": "tissue-based, guinea pigs of Hartley strain", "conditions": "Cavia porcellus", "method": "Male guinea pigs of Hartley strain (body weight: about 250 g) were intraperitoneally or intramuscularly dosed with egg albumin (dose 100 mg/kg) and the same procedure was repeated after 3 days. After 3 to 4 weeks, the guinea pi-as were bled to death and the sensitized bronchial muscle was excised and cut into 1.5 mm thick rings. Three rings were joined to prepare a specimen. The specimen was suspended in a tissue bath and a load of 1 g was applied. […] After stabilization of the specimen (after about 1 hour), histamine hydrochloride was added to the bath at a final concentration of 10^-5 M. The contraction curve was recorded. After the contraction had been stabilized, the specimen was washed with 3 portions of Ringer's solution at 10-minute intervals to stabilize the contraction (about 1 hour was required). Then, the test compound was added to the tissue bath and, after an interval of 10 minutes, 5 mg/ml of egg albumin was added. The contraction amplitude of the specimen was measured and the percent inhibition was calculated according to the following formula. [formula] A: Contraction amplitude of control group when egg albumin is added A': Contraction amplitude of dosage group when egg albumin is added\nH: Contraction amplitude of control group when histamine hydrochloride is added\nH': Contraction amplitude of dosage group when histamine hydrochloride is added"}, "[2]": {"system": "cerebral glucose uptake and oxidation of succinic acid in mitochondria", "conditions": "cited from earlier work"}, "mice of ddK strain": {"system": "mice of ddK strain", "experiment": "KCN anoxia test", "format": "in vivo"}}}
{"molecule": "CC(C)CCCC(C)CCCC(C)CCCC(C)(O)C(O)CN(C)C", "note": "(stereo not drawn) [Compound (32)]", "values": [{"measurement": "LD50", "setting": "Acute toxicity (LD50)", "value": 3880, "unit": "mg/kg"}, {"measurement": "inhibition at 10 µM", "setting": "[1]; 10^-5 M", "value": 40, "unit": "%"}, {"measurement": "inhibition at 1 µM", "setting": "[1]; 10^-6 M", "value": 61.1, "unit": "%"}, {"measurement": "inhibition at 0.1 µM", "setting": "[1]; 10^-7 M", "value": 25, "unit": "%"}, {"measurement": "inhibition at 0.01 µM", "setting": "[1]; 10^-8 M", "value": 10, "unit": "%"}]}
{"molecule": "dihydroergotoxine mesilate [reference compound]", "values": [{"measurement": "reported cerebral actions (in words)", "setting": "[2]", "value": "promotes cerebral glucose uptake and oxidation of succinic acid in mitochondria and increases the cerebral blood flow"}, {"measurement": "Survival rate (%)", "setting": "mice of ddK strain; 3 mg/kg i.p., KCN 2.65 mg/kg i.v. after 30 minutes, 180 seconds, control 0", "value": 10.0, "unit": "%"}, {"measurement": "Number of survivals/Number of mice used", "setting": "mice of ddK strain; 3 mg/kg i.p., KCN 2.65 mg/kg i.v. after 30 minutes, 180 seconds, control 0/8", "value": "1/10"}, {"measurement": "anti-anoxic action (in words)", "setting": "mice of ddK strain; KCN anoxia test", "value": "not sufficiently remarkable"}]}
